Reference: paper PMC8399565, “Fluorescence Cross-Correlation Spectroscopy Yields True Affinity and Binding Kinetics of Plasmodium Lactate Transport Inhibitors” (Pharmaceuticals, 2021)
Entries after “also recorded” stand apart in the source; their conditions may differ. Where two headings read alike, the source gives them in different places.

Experiments:
PfFNT G107S-GFP = target: T1, PfFNT G107S-GFP (Plasmodium falciparum, UniProt O77389, G107S); experiment: FCCS equilibrium competition binding, PfFNT G107S mutant
T1 construct: The DNA of full-length PfFNT from Plasmodium falciparum 3D7 was cloned as a C-terminal GFP fusion; expressed in transfected cells; intact cells for imaging, LMNG-solubilized membranes for FCCS
T1 sequence (O77389 whole entry G107S, the tested form may be a part): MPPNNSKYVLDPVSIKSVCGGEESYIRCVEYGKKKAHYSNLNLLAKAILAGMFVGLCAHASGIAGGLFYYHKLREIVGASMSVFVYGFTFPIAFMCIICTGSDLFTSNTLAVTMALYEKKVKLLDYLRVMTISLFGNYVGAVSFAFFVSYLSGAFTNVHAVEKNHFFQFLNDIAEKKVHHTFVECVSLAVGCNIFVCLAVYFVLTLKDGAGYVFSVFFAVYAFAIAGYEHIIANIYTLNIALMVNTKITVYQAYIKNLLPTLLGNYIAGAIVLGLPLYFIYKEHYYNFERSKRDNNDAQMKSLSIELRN
Method: Figure 4 Affinity determination of BH296, BH267.meta to PfFNT and PfFNT G107S, and equilibrium saturation binding of BH296 and BH267.meta to PfFNT and PfFNT G107S. […] BH267.meta bound to 100% of the GFP-fusions of wildtype PfFNT. […] (c) Membrane preparations containing 10 nM of PfFNT-GFP were incubated with 70 nM BH296-DY647, and associated complexes competed with free compounds BH267.meta and BH296 to assess their Ki values. […] (e) Membrane preparations containing GFP fusions of mutant PfFNT G107S were mixed with 150 nM of the labeled BH267.meta tracer and competed with BH267.meta and BH296.
The Ki values calculated for the interaction of BH296 and BH267.meta to mutant PfFNT G107S confirm the affinities observed for the direct interaction with labeled inhibitors.
FCCS measurements were conducted in 384-well glass-bottom plates (cat. no PS96B-G175, SWISSCI, Switzerland) using an Insight plate reader (Evotec Technologies, Germany) fitted with a U-Apo300 40x water immersion lens, NA 1.15 (Olympus, Japan). The 488 nm laser line of an argon-ion laser and the light of a 633 nm helium–neon laser were used for excitation. Fluorescence fluctuations were recorded for 8 s with 12 repetitions and analyzed afterward using FCS+plus Analyze 1.1P (Evotec technologies, Version 1.2.5g). FCCS analysis was carried out as described previously. Briefly, for measuring the dissociation constant (KD), a titration series of 12 dilutions was prepared, where the concentration of the lysates obtained from HEK cells expressing GFP-fusions of PfFNT WT and G107S was kept constant, and the concentration of the labeled binding partner (BH296-DY647 and BH267.meta-DY647, respectively) was varied. […] All KD and IC50 values, as well as kinetic parameters, were determined from three independently repeated experiments. The figures show one representative measurement; however, the calculated KD, Ki, kon and koff values are presented as an average of the three measurements ± SD. […]

[1] = system: FNT-type lactate transporters of the remaining four human-pathogenic plasmodia; conditions: cited from earlier work
hsMCT4 = target: T2, hsMCT4 (Homo sapiens, UniProt O15427); experiment: Live cell confocal imaging, co-localization with hsMCT4-GFP in HEK cells; type: cell-based; conditions: 50 nM BH296-DY647, hsMCT4-GFP in HEK cells
T2 construct: expressed in transfected cells
T2 sequence (O15427 1-465): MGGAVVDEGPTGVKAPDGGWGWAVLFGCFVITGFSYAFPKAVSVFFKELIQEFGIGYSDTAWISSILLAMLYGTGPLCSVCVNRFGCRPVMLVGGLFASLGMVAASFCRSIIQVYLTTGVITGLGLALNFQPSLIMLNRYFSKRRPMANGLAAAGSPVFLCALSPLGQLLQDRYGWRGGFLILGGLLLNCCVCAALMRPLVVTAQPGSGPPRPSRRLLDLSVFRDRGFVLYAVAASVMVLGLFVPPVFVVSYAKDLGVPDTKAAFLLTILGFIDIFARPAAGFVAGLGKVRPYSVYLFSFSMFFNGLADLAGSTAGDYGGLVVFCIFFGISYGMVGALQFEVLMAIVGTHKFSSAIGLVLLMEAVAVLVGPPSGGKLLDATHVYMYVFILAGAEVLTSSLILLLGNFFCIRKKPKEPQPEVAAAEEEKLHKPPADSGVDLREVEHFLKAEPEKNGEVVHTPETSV
Method: The monocarboxylate transporter hsMCT4 is a human functional homolog of PfFNT, but both proteins show no similarity on the basis of their primary sequence or transport mechanism.
The confocal laser scanning microscopy was performed on an LSM 510 confocal microscope connected to an Axiovert 200M equipped with a C-Apochromat 40×/1.2 W water immersion objective (Carl Zeiss, Germany). The red fluorophore (Dy-647) was excited using a 633 nm helium–neon laser, whereas the green fluorophore (GFP) was excited using a 488 nm argon-ion laser.

**Q.** What does the source list for O=C(/C=C(\O)C(F)(F)C(F)(F)F)c1cccnc1 [BH267.meta]?
**A.** Ki (PfFNT G107S-GFP; fluorescent probe BH267.meta-DY647 150 nM, competitor up to 10 µM, read-out: Ki Competitor): 0.417 ± 0.016 µM; concentration blocking FNT-type lactate transporters [1]: sub-micromolar

**Q.** Which results are given for O=C(C=C(O)C(F)(F)C(F)(F)F)c1ccc(O)cc1 [BH296, 4,4,5,5,5-pentafluoro-3-hydroxy-1-(4-hydroxyphenyl)pent-2-en-1-one]?
**A.** Ki (PfFNT G107S-GFP): > 10 µM; Ki Competitor (PfFNT G107S-GFP; fluorescent probe BH267.meta-DY647 150 nM, competitor up to 10 µM): did not compete; also recorded: does not interfere

**Q.** For CCN1/C(=C/C=C/C=C/C2=[N+](CC)c3ccc(S(=O)(=O)O)cc3C2(C)CCCC(=O)NCCOCCOCCOCCOCCC(=O)NCCCOc2ccc(C(=O)/C=C(\O)C(F)(F)C(F)(F)F)cc2)C(C)(C)c2cc(S(=O)(=O)[O-])ccc21 (centres unmarked) [BH296-DY647], which “co-localization on the plasma membrane” value (hsMCT4) is on record?
**A.** did not show any co-localization
